Results: PMC7083880 (Nature Communications, 2020)
“And” between values parts separate entries of the source, which are not always exact repeats. Equal values may be shown once.

What was measured:
Type in all cases: cell-based, human
[1] = system: firefly luciferase (Fluc) gene with UGA nonsense codon at position 109 in HeLa cells; test: Firefly luciferase readthrough assay, UGA PTC construct; conditions: for Concentration of maximal efficacy, UGA readthrough (luciferase) / EC50: Fig. 1D; for Concentration of maximal efficacy, UGA readthrough (luciferase): peer review file; for Correction of the UGA nonsense mutation (luciferase activity), in words: Fig. 1c; for EC50: authors' reply in peer review file, removed from final text
From the text: To identify the compounds responsible for this activity, a semi-preparative HPLC fractionation protocol was used. […] (Fig. 1b). DMSO and G418 were used, respectively, as a negative and a positive control.
The value of each luciferase measurement is presented in the Source Data File. All data shown in c, d are representative of two independent experiments. Source data are provided as a Source Data file.
HeLa cells were transfected with the FLuc-int-UGA construct using lipofectamine 3000 (Life technologies) according to the manufacturer’s recommendations. […] Steadylite plus luciferase substrate (Perkin Elmer, Waltham, MA, USA) was then added to each well before measuring the visible light from each well for 10 s with a Tristar luminometer (Berthold technologies, Versailles, France). The plate was read twice and the reported values are averages of the two reads.

[2] = system: endogenous TP53 gene with UGA nonsense mutation in Calu-6 cells; test: p53 protein western blot, Calu-6 cells; conditions: 24 h
Procedure: After 24 h of treatment, proteins were extracted from the cells and the p53 protein was assessed by western blotting (Fig. 2a). After DMSO mock treatment, as anticipated, no p53 protein was detected, because of the presence of the PTC in p53 mRNA[33].
The three leftmost lanes show twofold serial dilutions of untreated HeLa cell extract. The molecular weight is indicated to the left of each gel. b Schematic representation of the construct used to measure the function of p53. The construct carries a cDNA encoding the firefly luciferase under a promoter having two p53-responsive elements (underlined). […] The level of p21 mRNA is related to the amount of functional p53 protein synthesized in the cell. The results presented in panels b and c are representative of at least two independent experiments., p-values (p) were calculated using Student’s t-test. Source data are provided as a Source Data file.
Proteins were extracted from 2 × 10^6 cells in lysis buffer containing 5% SDS, 50 mM Tris–HCl pH 7, 20 mM EDTA, and a protease inhibitor cocktail (HALT Protease Inhibitor Cocktail, Pierce-Biotechnology, Rockford, IL, USA). Lysates were subjected to 30 pulses of sonication (Branson Digital Sonifier/amplitude 20%) before a 5 min centrifugation at 8000×g.
The equivalent of 2.5 × 10^5 cells was subjected to 10% SDS–PAGE before transfer of the proteins to a nitrocellulose membrane. […] Antibodies were then detected with Super Signal West Femto Maximum Sensitivity Substrate (Pierce-Biotechnology, Rockford, IL, USA). Quantifications were performed with QuantityOne software (Biorad). […]

[3] = system: nonsense-mediated mRNA decay (NMD) in Calu-6 cells; test: NMD efficiency: p53 mRNA / GAPDH mRNA by RT-PCR; conditions: 24 h; for Ratio of p53 mRNA to GAPDH mRNA: 600µM
Procedure: Source data are provided as a Source Data file.
Total RNA was purified from Calu-6 cells after 24 h of treatment.
RNA was purified using RNazol (MRC) according to the manufacturer’s instructions. 1/5 of the RNA preparation was used for reverse-transcription (RT) PCR (RT-PCR) using Superscript II (Life Technologies) for 2 h at 42 °C in the presence of random hexamers. The resulting cDNAs were PCR amplified in the presence of dCTP(α^33P) (Perkin Elmer) with the following primers: GAPDH mRNA (sense: 5′-[…]-3′; antisense: 5′-[…]-3′), p53 mRNA (sense: 5′-[…]-3′; antisense: 5′-[…]-3′), p21 mRNA (sense: 5′-[…]-3′; antisense: 5′-[…]-3′). PCR products were quantified with Personal Molecular Imager and QuantityOne quantification software (Bio-Rad).

Nc1nc(N)c2[nH]cnc2n1 [DAP, 2,6-diaminopurine]
Luciferase activity, UGA PTC, dose response ([1]; 0.39µM, Exp. 1): 1186.95
Luciferase activity, UGA PTC, dose response ([1]; 0.39µM, Exp. 2): 737.25
Luciferase activity, UGA PTC, dose response ([1]; 0.39µM, average): 962±318 and 962.101
Luciferase activity, UGA PTC, dose response ([1]; 0.78µM, Exp. 1): 1503.98
Luciferase activity, UGA PTC, dose response ([1]; 0.78µM, Exp. 2): 977.5
Luciferase activity, UGA PTC, dose response ([1]; 0.78µM, average): 1241±372 and 1240.74
Luciferase activity, UGA PTC, dose response ([1]; 1.56µM, Exp. 1): 2085.73
Luciferase activity, UGA PTC, dose response ([1]; 1.56µM, Exp. 2): 1374.25
Luciferase activity, UGA PTC, dose response ([1]; 1.56µM, average): 1730±503 and 1729.99
Luciferase activity, UGA PTC, dose response ([1]; 6.25µM, Exp. 1): 7245.46
Luciferase activity, UGA PTC, dose response ([1]; 6.25µM, Exp. 2): 4897.5
Luciferase activity, UGA PTC, dose response ([1]; 6.25µM, average): 6071±1660 and 6071.48
Luciferase activity, UGA PTC, dose response ([1]; 25µM, Exp. 1): 48084
Luciferase activity, UGA PTC, dose response ([1]; 25µM, Exp. 2): 33252.2
Luciferase activity, UGA PTC, dose response ([1]; 25µM, average): 40668±10487 and 40668.1
Luciferase activity, UGA PTC, dose response ([1]; 100µM, Exp. 1): 351175
Luciferase activity, UGA PTC, dose response ([1]; 100µM, Exp. 2): 246890
Luciferase activity, UGA PTC, dose response ([1]; 100µM, average): 299032±73740 and 299033
Luciferase activity, UGA PTC, dose response ([1]; 300µM, Exp. 1): 257964
Luciferase activity, UGA PTC, dose response ([1]; 300µM, Exp. 2): 190894
Luciferase activity, UGA PTC, dose response ([1]; 300µM, average): 224429±47425 and 224429
Luciferase activity, UGA PTC, dose response ([1]; 600µM, Exp. 1): 134395
Luciferase activity, UGA PTC, dose response ([1]; 600µM, Exp. 2): 97365.8
Luciferase activity, UGA PTC, dose response ([1]; 600µM, average): 115880±26184 and 115881
Luciferase activity, UGA PTC ([1]; DAP 3.75µM, average of 2 experiments): 20599.75±1015 and 20599.8
Luciferase activity, UGA PTC ([1]; DAP 3.75µM, experiment 1): 19882
Luciferase activity, UGA PTC ([1]; DAP 3.75µM, experiment 2): 21317.5
Luciferase activity, UGA PTC ([1]; DAP 37.5µM, average of 2 experiments): 35939.75±1176 and 35939.8
Luciferase activity, UGA PTC ([1]; DAP 37.5µM, experiment 1): 36771
Luciferase activity, UGA PTC ([1]; DAP 37.5µM, experiment 2): 35108.5
Concentration of maximal efficacy, UGA readthrough (luciferase) [1]: 100 µM
Correction of the UGA nonsense mutation (luciferase activity), in words [1]: exclusive correction of the UGA nonsense mutation
EC50 ([1]; Homo sapiens): ~50 µM
Synthesis of p53 protein (western blot) ([2]; Calu-6 (UGA)): dose-dependent synthesis of the p53 protein
Lowest concentration at which p53 protein was detected ([2]; Calu-6, western blot): 1.56 µM
NMD inhibition, in words ([3]; both tested concentrations): failed to inhibit NMD significantly

CN[C@@H]1[C@@H](O)[C@@H](O[C@@H]2[C@@H](O)[C@H](O[C@H]3O[C@H]([C@@H](C)O)[C@@H](O)[C@H](O)[C@H]3N)[C@@H](N)C[C@H]2N)OC[C@]1(C)O [G418, reference compound]
Luciferase activity, UGA PTC, dose response ([1]; 0.39µM, Exp. 1): 701.361
Luciferase activity, UGA PTC, dose response ([1]; 0.39µM, Exp. 2): 678.75
Luciferase activity, UGA PTC, dose response ([1]; 0.39µM, average): 690±16 and 690.055
Luciferase activity, UGA PTC, dose response ([1]; 0.78µM, Exp. 1): 783.19
Luciferase activity, UGA PTC, dose response ([1]; 0.78µM, Exp. 2): 761.5
Luciferase activity, UGA PTC, dose response ([1]; 0.78µM, average): 772±15 and 772.345
Luciferase activity, UGA PTC, dose response ([1]; 1.56µM, Exp. 1): 853.418
Luciferase activity, UGA PTC, dose response ([1]; 1.56µM, Exp. 2): 829
Luciferase activity, UGA PTC, dose response ([1]; 1.56µM, average): 841±17 and 841.209
Luciferase activity, UGA PTC, dose response ([1]; 6.25µM, Exp. 1): 1017.65
Luciferase activity, UGA PTC, dose response ([1]; 6.25µM, Exp. 2): 990.5
Luciferase activity, UGA PTC, dose response ([1]; 6.25µM, average): 1004±19 and 1004.07
Luciferase activity, UGA PTC, dose response ([1]; 25µM, Exp. 1): 1013.6
Luciferase activity, UGA PTC, dose response ([1]; 25µM, Exp. 2): 986
Luciferase activity, UGA PTC, dose response ([1]; 25µM, average): 1000±19 and 999.799
Luciferase activity, UGA PTC, dose response ([1]; 100µM, Exp. 1): 1134.07
Luciferase activity, UGA PTC, dose response ([1]; 100µM, Exp. 2): 1106
Luciferase activity, UGA PTC, dose response ([1]; 100µM, average): 1120±20 and 1120.03
Luciferase activity, UGA PTC, dose response ([1]; 300µM, Exp. 1): 1723.63
Luciferase activity, UGA PTC, dose response ([1]; 300µM, Exp. 2): 1679.5
Increase in luciferase activity relative to background level ([1]; 300 µM, UGA): about twice the background level
Luciferase activity, UGA PTC, dose response ([1]; 300µM, average): 1702±31 and 1701.56
Luciferase activity, UGA PTC, dose response ([1]; 600µM, Exp. 1): 1231.27
Luciferase activity, UGA PTC, dose response ([1]; 600µM, Exp. 2): 1202
Luciferase activity, UGA PTC, dose response ([1]; 600µM, average): 1217±21 and 1216.63
EC50 [1]: ~100 µM
Concentration of maximal efficacy, UGA readthrough (luciferase) [1]: 300 µM
Correction of the UGA nonsense mutation (luciferase activity), in words [1]: corrected the UGA more efficiently than the UAG nonsense mutation
Luciferase activity, UGA PTC ([1]; G418 1mg/ml, average of 2 experiments): 8466.25±478 and 8466.25
Luciferase activity, UGA PTC ([1]; G418 1mg/ml, experiment 1): 8804.5
Luciferase activity, UGA PTC ([1]; G418 1mg/ml, experiment 2): 8128
p53 protein detection (western blot) ([2]; 25 µM, Calu-6): barely detected
Ratio of p53 mRNA to GAPDH mRNA ([3]; average): 0.3943
Ratio of p53 mRNA to GAPDH mRNA ([3]; experiment 1): 0.4107
Ratio of p53 mRNA to GAPDH mRNA ([3]; experiment 2): 0.3778
Increase in p53 mRNA [3]: 1.8 fold
